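Briefly, cells in 96-well plates were exposed to five compound concentrations for 48 h, and endpoints were estimated by linear interpolation. GI50 is the concentration that inhibits growth by half. At the TGI there is no net growth.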
How the values were obtained:
Test in all cases: growth of human tumour cells (NCI), 48 h
SK-MEL-28 melanoma = system: SK-MEL-28 melanoma
K-562 leukemia = system: K-562 leukemia
SK-OV-3 ovarian = system: SK-OV-3 ovarian
NCI-H23 lung = system: NCI-H23 lung
HS 578T breast = system: HS 578T breast
TK-10 renal = system: TK-10 renal
SR leukemia = system: SR leukemia
SF-268 CNS = system: SF-268 CNS
HL-60(TB) leukemia = system: HL-60(TB) leukemia
EKVX NSCLC = system: EKVX NSCLC
PC-3 prostate = system: PC-3 prostate
NCI-H522 lung = system: NCI-H522 lung
BT-549 breast = system: BT-549 breast
HCC-2998 colon = system: HCC-2998 colon
MDA-MB-435 = system: MDA-MB-435
NCI/ADR-RES ovarian = system: NCI/ADR-RES ovarian
A498 renal = system: A498 renal
SNB-19 CNS = system: SNB-19 CNS
SF-539 CNS = system: SF-539 CNS
A549 NSCLC = system: A549 NSCLC
SF-295 CNS = system: SF-295 CNS
786-0 renal = system: 786-0 renal
T-47D breast = system: T-47D breast
CCRF-CEM leukemia = system: CCRF-CEM leukemia
KM12 colon = system: KM12 colon
DU-145 prostate = system: DU-145 prostate
UACC-62 melanoma = system: UACC-62 melanoma
MOLT-4 leukemia = system: MOLT-4 leukemia
SN12C renal = system: SN12C renal
COLO 205 colon = system: COLO 205 colon
RXF 393 renal = system: RXF 393 renal
HT29 colon = system: HT29 colon
HCT-15 colon = system: HCT-15 colon
UACC-257 melanoma = system: UACC-257 melanoma
NCI-H226 lung = system: NCI-H226 lung
RPMI-8226 leukemia = system: RPMI-8226 leukemia
UO-31 renal = system: UO-31 renal
MALME-3M melanoma = system: MALME-3M melanoma
SNB-75 CNS = system: SNB-75 CNS
U251 CNS = system: U251 CNS
IGROV1 ovarian = system: IGROV1 ovarian
OVCAR-4 ovarian = system: OVCAR-4 ovarian
SK-MEL-2 melanoma = system: SK-MEL-2 melanoma
SK-MEL-5 melanoma = system: SK-MEL-5 melanoma
OVCAR-5 ovarian = system: OVCAR-5 ovarian
HOP-92 NSCLC = system: HOP-92 NSCLC
M14 melanoma = system: M14 melanoma
OVCAR-8 ovarian = system: OVCAR-8 ovarian
MCF7 breast = system: MCF7 breast
HOP-62 NSCLC = system: HOP-62 NSCLC
ACHN renal = system: ACHN renal
CAKI-1 renal = system: CAKI-1 renal
MDA-MB-231 breast = system: MDA-MB-231 breast
HCT-116 colon = system: HCT-116 colon

Structure (SMILES): Oc1ccc(CSc2nnc(-c3ccc(Oc4ccccc4)cc3)o2)c2cccnc12
- GI50 (SK-MEL-28 melanoma): 4800 nM
- TGI (SK-MEL-28 melanoma): > 100000 nM
- GI50 (K-562 leukemia): 368 nM
- TGI (K-562 leukemia): > 100000 nM
- GI50 (SK-OV-3 ovarian): 1920 nM
- TGI (SK-OV-3 ovarian): 21800 nM
- GI50 (NCI-H23 lung): 739 nM
- TGI (NCI-H23 lung): 44900 nM
- GI50 (HS 578T breast): 612 nM
- TGI (HS 578T breast): 27400 nM
- GI50 (TK-10 renal): 2450 nM
- TGI (TK-10 renal): 69800 nM
- GI50 (SR leukemia): 370 nM
- TGI (SR leukemia): > 100000 nM
- GI50 (SF-268 CNS): 659 nM
- TGI (SF-268 CNS): > 100000 nM
- GI50 (HL-60(TB) leukemia): 668 nM
- TGI (HL-60(TB) leukemia): > 100000 nM
- GI50 (EKVX NSCLC): 515 nM
- TGI (EKVX NSCLC): > 100000 nM
- GI50 (PC-3 prostate): 561 nM
- TGI (PC-3 prostate): > 100000 nM
- GI50 (NCI-H522 lung): 4990 nM
- TGI (NCI-H522 lung): > 100000 nM
- GI50 (BT-549 breast): 905 nM
- TGI (BT-549 breast): > 100000 nM
- GI50 (HCC-2998 colon): 1040 nM
- TGI (HCC-2998 colon): > 100000 nM
- GI50 (MDA-MB-435): 713 nM
- TGI (MDA-MB-435): > 100000 nM
- GI50 (NCI/ADR-RES ovarian): 489 nM
- TGI (NCI/ADR-RES ovarian): 84600 nM
- GI50 (A498 renal): 8410 nM
- TGI (A498 renal): > 100000 nM
- GI50 (SNB-19 CNS): 421 nM
- TGI (SNB-19 CNS): > 100000 nM
- GI50 (SF-539 CNS): 689 nM
- TGI (SF-539 CNS): 55500 nM
- GI50 (A549 NSCLC): 1680 nM
- TGI (A549 NSCLC): > 100000 nM
- GI50 (SF-295 CNS): 877 nM
- TGI (SF-295 CNS): 7490 nM
- GI50 (786-0 renal): 1020 nM
- TGI (786-0 renal): 5880 nM
- GI50 (T-47D breast): 2170 nM
- TGI (T-47D breast): 9120 nM
- GI50 (CCRF-CEM leukemia): 498 nM
- TGI (CCRF-CEM leukemia): > 100000 nM
- GI50 (KM12 colon): 2650 nM
- TGI (KM12 colon): > 100000 nM
- GI50 (DU-145 prostate): 3270 nM
- TGI (DU-145 prostate): > 100000 nM
- GI50 (UACC-62 melanoma): 2410 nM
- TGI (UACC-62 melanoma): > 100000 nM
- GI50 (MOLT-4 leukemia): 1280 nM
- TGI (MOLT-4 leukemia): > 100000 nM
- GI50 (SN12C renal): 2130 nM
- TGI (SN12C renal): > 100000 nM
- GI50 (COLO 205 colon): > 100000 nM
- TGI (COLO 205 colon): > 100000 nM
- GI50 (RXF 393 renal): 3550 nM
- TGI (RXF 393 renal): > 100000 nM
- GI50 (HT29 colon): > 100000 nM
- TGI (HT29 colon): > 100000 nM
- GI50 (HCT-15 colon): 368 nM
- TGI (HCT-15 colon): > 100000 nM
- GI50 (UACC-257 melanoma): 15700 nM
- TGI (UACC-257 melanoma): > 100000 nM
- GI50 (NCI-H226 lung): 15300 nM
- TGI (NCI-H226 lung): > 100000 nM
- GI50 (RPMI-8226 leukemia): 458 nM
- TGI (RPMI-8226 leukemia): > 100000 nM
- GI50 (UO-31 renal): 373 nM
- TGI (UO-31 renal): 2380 nM
- GI50 (MALME-3M melanoma): 4540 nM
- TGI (MALME-3M melanoma): > 100000 nM
- GI50 (SNB-75 CNS): 595 nM
- TGI (SNB-75 CNS): 3920 nM
- GI50 (U251 CNS): 460 nM
- TGI (U251 CNS): 2700 nM
- GI50 (IGROV1 ovarian): 645 nM
- TGI (IGROV1 ovarian): > 100000 nM
- GI50 (OVCAR-4 ovarian): 1770 nM
- TGI (OVCAR-4 ovarian): 8010 nM
- GI50 (SK-MEL-2 melanoma): 3560 nM
- TGI (SK-MEL-2 melanoma): 90200 nM
- GI50 (SK-MEL-5 melanoma): 1270 nM
- TGI (SK-MEL-5 melanoma): > 100000 nM
- GI50 (OVCAR-5 ovarian): 8020 nM
- TGI (OVCAR-5 ovarian): > 100000 nM
- GI50 (HOP-92 NSCLC): 1410 nM
- TGI (HOP-92 NSCLC): 24900 nM
- GI50 (M14 melanoma): 621 nM
- TGI (M14 melanoma): > 100000 nM
- GI50 (OVCAR-8 ovarian): 633 nM
- TGI (OVCAR-8 ovarian): > 100000 nM
- GI50 (MCF7 breast): 497 nM
- TGI (MCF7 breast): > 100000 nM
- GI50 (HOP-62 NSCLC): 682 nM
- TGI (HOP-62 NSCLC): 9850 nM
- GI50 (ACHN renal): 565 nM
- TGI (ACHN renal): 2140 nM
- GI50 (CAKI-1 renal): 1880 nM
- TGI (CAKI-1 renal): > 100000 nM
- GI50 (MDA-MB-231 breast): 1490 nM
- TGI (MDA-MB-231 breast): 79900 nM
- GI50 (HCT-116 colon): 420 nM
- TGI (HCT-116 colon): 4400 nM

— PubChem BioAssay (NCI)
